Patent US9233961B2, “Compounds and compositions for the treatment of parasitic diseases” (Novartis AG, priority 2013, dated 2016)
Where two headings read alike, the source gives them in different places.

Columns and labels:
[1] = tested on: Trypanosoma cruzi amastigotes (Tulahuen strain) cultured in 3T3 fibroblast cells; assay: Assay for proliferation of kinetoplastid parasite Trypanosoma cruzi; type: cell-based; conditions: 144 h
Text: Assay for Proliferation of Kinetoplastid Parasite Trypanosoma cruzi.
Compounds of the invention can be assayed to measure their capacity to inhibit proliferation of kinetoplastid parasite Trypanosoma cruzi. The screening procedure is for identifying compounds with inhibitor activity against Trypanosoma cruzi amastigotes cultured in 3T3 fibroblast cells. The assay is done using the mammalian stage (amastigotes) of T. cruzi that replicates in the intracellular space of host cells. The host cells are initially infected with the culture-derived trypomastigotes that rapidly invade and then divide as amastigotes. The protocol uses the Tulahuen strain of T. cruzi that has been engineered to express the E. coli beta-galactosidase gene (Lac-Z) (Antimicr. Agents Chemoth. 40:2592, 1996). This allows for a colorimetric readout by using the substrate CPRG and an absorbance plate reader.
3T3 fibroblast cells are re-suspended in RPMI-1640 medium without phenol red medium supplemented with 10% FBS (heat inactivated), 100 μg/ml penicillin, and 100 μg/ml streptomycin. Forty μL of suspension (1,000 cells) is dispensed into 384-well plates and incubated overnight at 37° C. temperature and in atmosphere containing 5% CO2. The following day, 100 nL of compounds of the invention in DMSO are added to plate wells containing 3T3 cells. At the same time control compounds (benznidazole and nifurtimox) and DMSO are added to plates to serve as the positive and negative controls, respectively. After that, 10 μL of media containing 10,000 T. cruzi trypomastigotes are added to each plate well and plates are placed back into incubators. After 6 day incubation, 10 μL of reagent solution (0.6 mM CPRG, 0.6% NP-40 in PBS) is added to plates and incubated at room temperature for 2 hours. Absorbance is then measured on SpectraMax Gemini […] to determine relative number of T. cruzi cells present in each plate well. The percentage inhibition of 50%, EC50, is calculated for each compound. […] Typically, the EC50 is 10 μM or less.

[2] = tested on: Leishmania donovani axenic amastigote parasites; assay: Leishmania donovani axenic amastigote proliferation assay; type: cell-based; conditions: read-out: L. donovani amastigotes EC50
How it was run: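 EC50 values come from CellTiter-Glo luminescence after 2-day compound exposure of axenic amastigotes (9600 per well) at 37 °C, 5% CO2. Medium: RPMI 1640, 20% heat-inactivated FBS, folic acid, adenosine, D-glucose, 25 mM MES, adjusted to pH 5.5.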

[3] = tested on: L. donovani HU3 strain in mouse peritoneal macrophages; assay: Assay for proliferation of Leishmania parasites in mouse peritoneal macrophages; type: cell-based, Leishmania donovani
How it was run: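 EC50 derives from counting SYBR Green-stained parasite nuclei by high-content imaging after 5 days' compound exposure. Host cells were uninfected BALB/c peritoneal macrophages, infected for 24 h before dosing with spleen-derived L. donovani HU3 parasites from mice infected 9–11 weeks.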

[4] = tested on: Trypanosoma brucei Lister 427 strain bloodstream form; assay: Assay for proliferation of kinetoplastid parasite Trypanosoma brucei; type: cell-based; conditions: read-out: T. brucei EC50
How it was run: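 Bloodstream-form T. brucei Lister 427 in HMI-9 medium was exposed to compound (DMSO vehicle) for 48 hours at 37° C, 5% CO2. Parasite growth was read as ATP by CellTiter-Glo luminescence, with EC50 calculated from percent inhibition.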

[5] = patients injected; cited from earlier work
[6] = Tulahuen amastigotes in 3T3 fibroblast cells, 6 day incubation, read-out: T cruzi EC50
[7] = Leishmania donovani, Peritoneal macrophage, read-out: L. donavani Macrophage EC50
[8] = Lister 427 bloodstream form, 48 hours
[9] = Leishmania donovani, Peritoneal macrophage, 120 h, L. donovani in mouse peritoneal macrophages, 5 days culture, SybrGreen parasite nuclei count, read-out: EC50
[10] = TULAHUEN, Fibroblast, read-out: T cruzi EC50

Row | SMILES | EC50 [1, 6] | EC50 ([2]; axenic amastigotes in vitro) | EC50 [3, 7] | EC50 [4, 8] | further results
1 | CCN(C)C(=O)Nc1ccc(Cl)c(-c2nc3ncc(C)cc3[nH]2)c1 [Compound 242] | 1380 nM | 4300 nM | 25500 nM | 360 nM | –
2 | Cc1cnc2nc(-c3cc(NC(=O)N(C)C)ccc3Cl)[nH]c2c1 [Compound 243] | 2580 nM | 5000 nM | 39600 nM | 450 nM | –
3 | Cc1cnc2nc(-c3cc(NC(=O)N4CCN(C)CC4)ccc3Cl)[nH]c2c1 [Compound 244] | > 20000 nM | > 25000 nM | > 50000 nM | > 25000 nM | –
4 | Cc1ccc(C(=O)Nc2ccc(Cl)c(-c3nc4ncc(C(F)(F)F)cc4[nH]3)c2)o1 [Compound 279] | 141 nM | 570 nM | 2250 nM | 311 nM | –
5 | O=C(Cc1cccc(Cl)c1)Nc1ccc(Cl)c(-c2nc3ncc(C(F)(F)F)cc3[nH]2)c1 [Compound 280] | 3400 nM | 21200 nM | 27400 nM | > 13600 nM | –
6 | CS(=O)(=O)c1ccc(-c2cnc3nc(-c4cc(NC(=O)N5CCCC5)ccc4Cl)[nH]c3c2)cc1 [Compound 297] | 5300 nM | 1590 nM | 5500 nM | 187 nM | –
7 | CN(C(=O)OC(C)(C)C)c1ccc(-c2cnc3nc(-c4cc(NC(=O)N5CCCC5)ccc4Cl)[nH]c3c2)cc1 [Compound 308, tert-butyl N-[4-(2-{2-chloro-5-[(pyrrolidin-1-yl)carbonylamino]phenyl}-1H-imidazo[4,5-b]pyridin-6-yl)phenyl]-N-methylcarbamate] | 23 nM | 114 nM | 85 nM | 25 nM | EC50 [3, 9]: ~80 nM
8 | CNc1ccc(-c2cnc3nc(-c4cc(NC(=O)c5cnccn5)ccc4Cl)[nH]c3c2)cc1 [Compound 348] | 64 nM | 249 nM | 920 nM | 23.9 nM | –
9 | CCOC(=O)Nc1ccc(Cl)c(-c2nc3ncc(-c4ccc(NC)cc4)cc3[nH]2)c1 [Compound 351] | 243 nM | 1190 nM | 3700 nM | 206 nM | –
10 | COCCOC(=O)Nc1ccc(Cl)c(-c2nc3ncc(Br)cc3[nH]2)c1 [Compound 371] | 3300 nM | 2350 nM | 6500 nM | 2210 nM | –
11 | O=C(Nc1ccc(Cl)c(-c2nc3ncc(Br)cc3[nH]2)c1)C1CCCC1 [Compound 374] | 850 nM | 16500 nM | 5900 nM | 5100 nM | –
12 | O=C(Nc1ccc(Cl)c(-c2nc3ncc(Br)cc3[nH]2)c1)c1cnccn1 [Compound 375] | 3900 nM | 7500 nM | > 42700 nM | 2350 nM | –
13 | O=C1Cc2cc(-c3cnc4nc(-c5cc(NC(=O)C6CCCC6)ccc5Cl)[nH]c4c3)ccc2N1 [Compound 377] | 2060 nM | 6600 nM | 5800 nM | 580 nM | –
14 | COCCOC(=O)Nc1ccc(Cl)c(-c2nc3ncc(-c4ccc5c(c4)CC(=O)N5)cc3[nH]2)c1 [Compound 379] | 13200 nM | 1490 nM | 8700 nM | 690 nM | –
15 | Cc1cnc2nc(-c3cc(NC(=O)NCCN(C)C)ccc3Cl)[nH]c2c1 [Example 226, 1-(4-Chloro-3-{6-methyl-1H-imidazo[4,5-b]pyridin-2-yl}phenyl)-3-[2-(dimethylamino)ethyl]urea] | – | – | > 50000 nM | – | EC50 [1, 10]: > 20000 nM; EC50 [2]: > 25000 nM; EC50 ([4]; 48 h): > 22200 nM
16 | O=C(Nc1ccc(Cl)c(-c2nc3ncc(-c4ccccc4)cc3[nH]2)c1)N1CCCC1 [Example 291, N-(4-chloro-3-{6-phenyl-1H-imidazo[4,5-b]pyridin-2-yl}phenyl)pyrrolidine-1-carboxamide] | – | 76 nM | – | 15.2 nM | EC50 ([1]; TULAHUEN, Fibroblast): 16 nM; EC50 [1, 10]: 16.1 nM; EC50 ([3]; L. donovani in mouse peritoneal macrophages, 5 days culture, SybrGreen parasite nuclei count, read-out: EC50): ~80 nM; EC50 [3, 9]: 76 nM
17 | CNc1ccc(-c2cnc3nc(-c4cc(NC(=O)OCCOC)ccc4Cl)[nH]c3c2)cc1 [Example 350, 2-Methoxyethyl N-(4-chloro-3-{6-[4-(methylamino)phenyl]-1H-imidazo[4,5-b]pyridin-2-yl}phenyl)carbamate] | – | – | 1260 nM | – | EC50 [1, 10]: 510 nM; EC50 [2]: 680 nM; EC50 ([4]; 48 h): 800 nM
18 | CCOC(=O)Nc1ccc(Cl)c(-c2nc3ncc(Br)cc3[nH]2)c1 [Example 370, Ethyl N-(3-{6-bromo-1H-imidazo[4,5-b]pyridin-2-yl}-4-chlorophenyl)carbamate] | – | – | 7400 nM | – | EC50 [1, 10]: 1200 nM; EC50 [2]: 2530 nM; EC50 ([4]; 48 h): 520 nM
19 | Nc1nc(N)nc(Nc2ccc([As]3SCC(CO)S3)cc2)n1 (centres unmarked) [Melarsoprol] | – | – | – | – | patients who developed reactive encephalopathy (convulsions, progressive coma, or psychotic reactions) [5]: 3-10%; reactive encephalopathy cases that result in death [5]: 10-70%
